Data: patent US5362728A, “4,5-bridged-2,3,4,5-tetrahydro-1H-3-benzazepine-7-ols and derivatives and compositions and methods employing such compounds” (Schering Corporation, priority 1992, dated 1994)
Where two headings read alike, the source gives them in different places.

Key:
dopamine D-1 receptor = target: T1, dopamine D-1 receptor (Rattus norvegicus, UniProt P18901); experiment: Competitive inhibition assay, 3H-SCH 23390 binding (D-1), rat striatal tissue; set-up: species or system rat (male Sprague-Dawley)
T1 construct: Striatal tissue is excised, pooled, and homogenized; from tissue; host or cells: rat striatum, washed membrane homogenate
T1 sequence (P18901 whole entry): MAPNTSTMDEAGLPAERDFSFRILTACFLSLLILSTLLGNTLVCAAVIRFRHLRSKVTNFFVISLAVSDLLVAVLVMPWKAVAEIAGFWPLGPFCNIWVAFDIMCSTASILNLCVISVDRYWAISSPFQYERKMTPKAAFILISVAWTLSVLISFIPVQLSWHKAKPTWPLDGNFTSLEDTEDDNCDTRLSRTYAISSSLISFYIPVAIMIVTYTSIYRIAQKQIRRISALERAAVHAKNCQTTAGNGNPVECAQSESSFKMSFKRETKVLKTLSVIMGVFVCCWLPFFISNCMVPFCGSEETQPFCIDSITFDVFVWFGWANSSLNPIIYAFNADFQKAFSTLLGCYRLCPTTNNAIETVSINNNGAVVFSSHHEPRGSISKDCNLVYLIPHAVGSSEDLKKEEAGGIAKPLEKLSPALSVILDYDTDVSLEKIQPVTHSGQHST
Text: (§1) A methodology for characterization of D-1 and D-2 receptor binding and an interpretation of the data are described by Billard et al., Life Sciences 35, 1885 (1984) in which the binding of the benzazepine (R)-(+)-8-chloro-2,3,4,5-tetrahydro-3-methyl-5-phenyl-1H-3-benzazepin-7-olhemimaleate (SCH 23390) to the dopamine D-1 receptor is characterized. A selectivity for D-1 receptor binding as compared to D-2 receptor binding .is believed to confer the therapeutic advantage of avoiding troublesome and potentially irreversible neurological side effects associated with D-2 receptor occupancy.
(§2) Tritiated SCH 23390 and tritiated spiperone (a potent D-2 receptor ligand) are obtained as described in the Billard et al. reference supra and serially diluted in 0.05M Tris buffer, pH 7.4, as required. Compounds of this invention are synthesized as disclosed herein and diluted in 0.05M Tris buffer, pH 7.4, as required.
(§3) Male Sprague-Dawley rats (200 to 250 g) from Charles River Breeding Laboratories, Mass. are used to obtain brain tissue. The rats are humanely sacrificed and their brains removed and placed on ice. Striatal tissue is excised, pooled, and homogenized (Brinkman Polytron, 10 sec) in 100 volumes (w/v) of ice cold 50 mM Tds buffer, pH 7.4 (at 25° C.). The homogenate is centrifuged at 20,000 xg for 10 min. The resultant pellet is rehomogenized in Tris buffer and centrifuged again. The final pellet is resuspended in 50 mM Tris buffer pH 7.4 containing 120 mM NaCl, 5 mM KCl, 2 mM CaCl2, and 1 mM MgCl2.
(§4) Polypropylene incubation tubes receive 100 μl of the individual test compounds at vadous concentrations dissolved or suspended in 0.05M Tris, pH 7.4 containing 4 mg/ml methylcellulose, 100 μl of a solution of ^3 H-SCH 23390 in Tris buffer (final reaction mixture concentration=0.3 nM) or 100 μl of a solution of ^3 H-spiperone in Tris buffer (final concentration=0.2 nM) and 800 μl of tissue suspension (ca. 3 mg/assay). Tubes are incubated at 37° C. for 15 minutes and rapidly vacuum filtered through Whatman GF/B filters and rinsed 4 times with 4 ml of ice cold 50 mM Tds buffer, pH 7.4. The filters are transferred to scintillation vials, equilibated with 10 ml of scintillant (Scintosol, Isolab, Inc.) for 16 hours at 25° C. and the radioactivity determined in a liquid scintillation counter, Ki values are determined as described by Billard et al. using the relationship Kj = IC50 /(1+([L]/KD)) wherein IC50 =concentration of test drug necessary to displace 50% of specifically bound ^3 H-Sch 23390, [L]=concentration of radioligand used in the assay, and KD =dissociation constant.

D-2 receptor = target: T2, D-2 receptor (Rattus norvegicus, UniProt P61169); experiment: Competitive inhibition assay, 3H-spiperone binding (D-2), rat striatal tissue; set-up: species or system rat (male Sprague-Dawley)
T2 construct: Striatal tissue is excised, pooled, and homogenized; from tissue; host or cells: rat striatum, washed membrane homogenate
T2 sequence (P61169 whole entry): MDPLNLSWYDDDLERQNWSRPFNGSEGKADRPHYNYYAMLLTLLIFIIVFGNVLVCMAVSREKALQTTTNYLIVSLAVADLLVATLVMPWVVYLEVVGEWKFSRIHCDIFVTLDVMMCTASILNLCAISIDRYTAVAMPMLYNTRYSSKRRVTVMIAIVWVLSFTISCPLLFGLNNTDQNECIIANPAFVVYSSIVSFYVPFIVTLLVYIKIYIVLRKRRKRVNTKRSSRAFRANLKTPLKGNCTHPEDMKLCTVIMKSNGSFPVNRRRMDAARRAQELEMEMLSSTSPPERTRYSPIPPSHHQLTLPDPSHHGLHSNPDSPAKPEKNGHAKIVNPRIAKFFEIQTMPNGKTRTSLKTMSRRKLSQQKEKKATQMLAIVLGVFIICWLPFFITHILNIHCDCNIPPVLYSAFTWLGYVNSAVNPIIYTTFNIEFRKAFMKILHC
Text: as §1, §2, §3, §4

squirrel monkey = experiment: Squirrel monkey conditioned avoidance response (CAR) test; format: in vivo; conditions: Primates, po, read-out: CAR(MED) Sq. Monkey @ 1 hr
Text: SQUIRREL MONKEY CONDITIONED AVOIDANCE RESPONSE (CAR) TEST
This test is designed to measure the potency of candidate compounds in a primate species.
Male or female squirrel monkeys weighing 800-1200 g housed one per cage are utilized. Initially each monkey is taught to terminate a 3 mA electric shock delivered through the grid floor of the test cage and an overlapping tone by depressing a lever in the cage.
In the second phase of the testing, a ten second tone is turned on prior to the shock component. A lever press during the sounding of the tone terminates the tone and prevents the occurrence of the shock component and is denoted as an "avoidance".
The compound testing is commenced after three consecutive days of re-testing. […] The monkey must achieve at least an 85% correct avoidance before drug testing commences. If this minimal avoidance level is achieved, the next day the monkey is orally dosed or injected with the subject compounds in the appropriate vehicle and the number of avoidances are recorded. An animal is defined as having been "affected" by any drug treatment if there is a 50% loss of avoidance behavior relative to the performance of the animal when only the vehicle is injected. The minimal effective dose (MED) is defined as that dose producing an effect in at least 50% of the animals.
A test may be conducted to determine the effective potency of a compound in accordance with the present invention by comparing a compound of the invention to a known compound, (R)-(+)-8-chloro-2,3,4,5-tetrahydro-3-methyl-5-phenyl-1H-3-benzazepin-7-olhemimaleate, denoted as Compound B (Sch 23390). A compound of the invention administered 60 minutes prior to the test is compared to compound B administered 30 minutes prior to test.

[1] = Col. 7, 3H-SCH 23390 0.3 nM, rat striatum, 37° C., 15 min, pH 7.4, read-out: Ki (nM) 3H-Sch23390
[2] = Col. 8, 3H-spiperone 0.2 nM, rat striatum, 37° C., 15 min, pH 7.4, read-out: Ki (nM) 3H-Spip
[3] = Col. 9, p.o., 1 hr, minimal effective dose = dose producing an effect in at least 50% of the animals

## C[C@H]1CC[C@@H]2[C@@H]1c1cc(O)c(Cl)cc1CCN2C (relative stereo)
Dopamine D-1 receptor; [1]
  Ki: 3 nM
D-2 receptor; [2]
  Ki: 350 nM
Squirrel monkey; [3]
  minimal effective dose: > 10 mg/kg

## Cc1cc2c(cc1O)[C@@H]1CCCC[C@H]1N(C)CC2 (relative stereo)
Dopamine D-1 receptor; [1]
  Ki: 70 nM
D-2 receptor; [2]
  Ki: 71000 nM
Squirrel monkey; [3]
  minimal effective dose: > 10 mg/kg

## Cc1ccc(NC(=O)Oc2cc3c(cc2Cl)CCN(C)[C@@H]2CCC[C@@H]32)c(C)c1 (relative stereo)
Dopamine D-1 receptor
  Ki: 7.7 nM
D-2 receptor
  Ki: 428 nM
Squirrel monkey; 1 h
  minimal effective dose: > 3 mg/kg

## C[C@H]1CC[C@@H]2[C@@H](C1)c1cc(O)c(Cl)cc1CCN2C (relative stereo)
Dopamine D-1 receptor; [1]
  Ki: 70 nM
D-2 receptor; [2]
  Ki: > 10000 nM
Squirrel monkey; [3]
  minimal effective dose: > 10 mg/kg

## CCCCC(=O)Oc1cc2c(cc1Cl)CCN(C)C1CCCC21 (centres unmarked)
Dopamine D-1 receptor; [1]
  Ki: 24 nM
D-2 receptor; [2]
  Ki: 177 nM

## CC(C)c1ccc(NC(=O)Oc2cc3c(cc2Cl)CCN(C)[C@@H]2CCC[C@@H]32)cc1 (relative stereo)
Dopamine D-1 receptor
  Ki: 5.4 nM
D-2 receptor
  Ki: 430 nM

## Oc1cc2c(cc1Cl)CCN[C@@H]1CCC[C@@H]21 (relative stereo)
Dopamine D-1 receptor; [1]
  Ki: 96 nM
D-2 receptor; [2]
  Ki: 1300 nM

## CN1CCc2cc(Cl)c(O)cc2[C@@H]2CCC[C@H]21 (relative stereo)
Dopamine D-1 receptor; [1]
  Ki: 2.8 nM
D-2 receptor; [2]
  Ki: 380 nM
Squirrel monkey; [3]
  minimal effective dose: > 10 mg/kg

## CN1CCc2ccc(O)cc2[C@@H]2CCC[C@H]21 (relative stereo)
Dopamine D-1 receptor; [1]
  Ki: 335 nM
D-2 receptor; [2]
  Ki: 2320 nM

## Cc1cc2c(cc1O)[C@H]1[C@@H](CC[C@@H]1C)N(C)CC2 (relative stereo)
Dopamine D-1 receptor; [1]
  Ki: 14 nM
D-2 receptor; [2]
  Ki: 840 nM
Squirrel monkey; [3]
  minimal effective dose: 3 mg/kg
